The values that follow come from US20090239846A1, “Novel Compounds” (Glaxo Group Limited, priority 2005, published 2009).

One series concerns the target T1, Recombinant human p38α (Homo sapiens, UniProt Q16539).
T1 construct: GST; made in house
Kind of series: Fluorescence anisotropy kinase binding assay (standard or low volume). Particulars: 12 nM p38α, 5 nM fluorescent ligand. The method in brief: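 Activated GST-tagged recombinant human p38α (pre-activated with MBP-MKK6 DD) at 12 nM final with 5 nM rhodamine green-labelled pyridinylimidazole tracer in pH 7.5 HEPES/CHAPS/DTT/MgCl2 buffer. Test compound 0.28 nM–16.6 μM or 0.02 nM–25 μM final, 3% or 1.7% DMSO; 30–60 min at room temperature. Fluorescence anisotropy read (ex 485/em 535 nm) for Ki.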
In general terms: Fluorescence polarisation rises when a labelled molecule tumbles more slowly, as on binding a larger partner.

Series [1] concerns influx of neutrophils to the lung in LPS-challenged rats. Put plainly: Rat LPS neutrophilia model. It is filed as in vivo. The settings on record: LPS aerosol, lavage 4 hours later, in at least one of the range of conditions tested, significance p<0.05. In short, it runs like this: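 Rats pretreated 15 min–24 h with compound or vehicle, given intratracheally (200 ul, isoflurane anaesthesia) as suspension in various vehicles, then exposed to LPS aerosol (100 ug/ml) 15 min. BAL 4 h later; Diffquick-stained differential counts give % inhibition of neutrophils versus no-compound controls at a set concentration and pretreatment time.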

What is called melting point is the temperature, or range, at which the solid turns liquid.

T1 sequence (Q16539 whole entry): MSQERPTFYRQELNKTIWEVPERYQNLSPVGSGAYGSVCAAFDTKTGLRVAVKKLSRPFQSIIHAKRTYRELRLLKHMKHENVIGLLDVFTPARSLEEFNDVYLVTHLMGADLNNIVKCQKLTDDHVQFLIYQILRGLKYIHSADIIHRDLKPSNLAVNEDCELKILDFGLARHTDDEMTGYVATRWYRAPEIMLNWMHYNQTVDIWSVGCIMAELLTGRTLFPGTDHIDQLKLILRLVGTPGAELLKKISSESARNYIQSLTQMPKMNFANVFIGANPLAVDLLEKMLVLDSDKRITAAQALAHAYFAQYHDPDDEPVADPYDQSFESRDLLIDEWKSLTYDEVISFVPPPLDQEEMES

With `COc1nc(-c2cc(NC(=O)c3ccsc3)ccc2C)c2c(n1)N(c1c(F)cccc1F)C(=O)NC2` [10(e), N-{3-[8-(2,6-difluorophenyl)-2-(methyloxy)-7-oxo-5,6,7,8-tetrahydropyrimido-[4,5-d]pyrimidin-4-yl]-4-methylphenyl}-3-thiophenecarboxamide], the melting point is 225 to 228 °C (dec.). The “active in the assay (pIC50, p38α binding)” value (“active in the assay” below) at Recombinant human p38α was “active”.

As to `Cc1ccc(C(=O)NCc2ccccc2)cc1-c1nc(N2CCC(N)CC2)nc2c1CNC(=O)N2c1c(F)cccc1F` [15(c), 3-[2-(4-Amino-1-piperidinyl)-8-(2,6-difluorophenyl)-7-oxo-5,6,7,8-tetrahydropyrimido[4,5-d]pyrimidin-4-yl]-4-methyl-N-(phenylmethyl)benzamide], the melting point is 210 to 266 °C (dec.). The “active in the assay” value at Recombinant human p38α was “active”.

Turning to `CNCCNc1nc(-c2cc(C(=O)NCc3ccccc3)ccc2C)c2c(n1)N(c1c(F)cccc1F)C(=O)NC2` [19(b), 3-(8-(2,6-Difluorophenyl)-2-{[2-(methylamino)ethyl]amino}-7-oxo-5,6,7,8-tetrahydropyrimido[4,5-d]pyrimidin-4-yl)-4-methyl-N-(phenylmethyl)benzamide], the melting point lay within 157 to 161 °C. Also, the “active in the assay” value on Recombinant human p38α is “active”.

Regarding `Cc1ccc(C(=O)NCc2ccccc2)cc1-c1nc(NC2CCNCC2)nc2c1CNC(=O)N2c1c(F)cccc1F` [21(b), 3-[8-(2,6-Difluorophenyl)-7-oxo-2-(4-piperidinylamino)-5,6,7,8-tetrahydropyrimido[4,5-d]pyrimidin-4-yl]-4-methyl-N-(phenylmethyl)benzamide], the melting point is 172 to 176 °C (dec.). The “active in the assay” value at Recombinant human p38α is on record as “active”.

Take `Cc1ccc(NC(=O)c2ccsc2)cc1-c1nc(N2CCC(N)CC2)nc2c1CNC(=O)N2c1c(F)cccc1F` [Example 11, N-{3-[2-(4-amino-1-piperidinyl)-8-(2,6-difluorophenyl)-7-oxo-5,6,7,8-tetrahydropyrimido[4,5-d]pyrimidin-4-yl]-4-methylphenyl}-3-thiophenecarboxamide]: the melting point is 250 to 261 °C (dec.). Further, the inhibition of neutrophilia entry in series [1] is given as “statistically significant inhibition of neutrophilia”.

In the case of `Cc1ccc(C(=O)NCc2ccccc2)cc1-c1nc(NC2CC(C)(C)NC(C)(C)C2)nc2c1CNC(=O)N2c1c(F)cccc1F` [Example 16, 3-{8-(2,6-Difluorophenyl)-7-oxo-2-[(2,2,6,6-tetramethyl-4-piperidinyl)amino]-5,6,7,8-tetrahydropyrimido[4,5-d]pyrimidin-4-yl}-4-methyl-N-(phenylmethyl)benzamide], the melting point is 160 to 165 °C (dec.).

As for `Cc1ccc(C(=O)NCc2ccccc2)cc1-c1nc(N(C)CCCN(C)C)nc2c1CNC(=O)N2c1c(F)cccc1F` [Example 17, 3-{8-(2,6-Difluorophenyl)-2-[[3-(dimethylamino)propyl](methyl)amino]-7-oxo-5,6,7,8-tetrahydropyrimido[4,5-d]pyrimidin-4-yl}-4-methyl-N-(phenylmethyl)benzamide], the melting point lay within 124 to 127 °C. The inhibition of neutrophilia result in series [1] was “statistically nonsignificant inhibition of neutrophilia”.

The compound `Cc1ccc(C(=O)NCc2ccccc2)cc1-c1nc(NCCNC(C)C)nc2c1CNC(=O)N2c1c(F)cccc1F` [Example 20, 3-[8-(2,6-Difluorophenyl)-2-({2-[(1-methylethyl)amino]ethyl}amino)-7-oxo-5,6,7,8-tetrahydropyrimido[4,5-d]pyrimidin-4-yl]-4-methyl-N-(phenylmethyl)benzamide] showed a melting point of 133 to 137 °C. Further, at Recombinant human p38α, the “active in the assay” value is listed as “active”.

Consider `Cc1ccc(C(=O)NCc2ccccc2)cc1-c1nc(NC2CCN(C)CC2)nc2c1CNC(=O)N2c1c(F)cccc1F` [Example 22, 3-[8-(2,6-Difluorophenyl)-2-[(1-methyl-4-piperidinyl)amino]-7-oxo-5,6,7,8-tetrahydropyrimido[4′-d]pyrimidin-4-yl]-4-methyl-N-(phenylmethyl)benzamide], for which the melting point is 152 to 154 °C (dec.). Also, the “active in the assay” value at Recombinant human p38α is listed as “active”.

With `Cc1ccc(C(=O)Nc2ccc(C)c(-c3nc(N4CCC(N)CC4)nc4c3CNC(=O)N4c3c(F)cccc3F)c2)cc1F` [Example 24, N-{3-[2-(4-amino-1-piperidinyl)-8-(2,6-difluorophenyl)-7-oxo-5,6,7,8-tetrahydropyrimido[4,5-d]pyrimidin-4-yl]-4-methylphenyl}-3-fluoro-4-methylbenzamide], the melting point worked out at 240 °C. Also, in series [1], the inhibition of neutrophilia result is “statistically nonsignificant inhibition of neutrophilia”.

`CCOc1nc(-c2cc(NC(=O)c3ccc(C)c(F)c3)ccc2C)c2c(n1)N(c1c(F)cccc1F)C(=O)NC2` [Example 25] showed a melting point of 257.3 to 262.5 °C.

`Cc1ccc(C(=O)Nc2ccc(C)c(-c3nc(OC(C)C)nc4c3CNC(=O)N4c3c(F)cccc3F)c2)cc1F` [Example 26, N-(3-{8-(2,6-difluorophenyl)-2-[(1-methylethyl)oxy]-7-oxo-5,6,7,8-tetrahydropyrimido[4,5-d]pyrimidin-4-yl}-4-methylphenyl)-3-fluoro-4-methylbenzamide]: the melting point is 253.5 to 255.4 °C. In addition, the inhibition of neutrophilia entry in series [1] was “inactive”.

On to `Cc1ccc(C(=O)NCc2ccccc2)cc1-c1nc(N2CCC(N(C)C(=O)OC(C)(C)C)CC2)nc2c1CNC(=O)N2c1c(F)cccc1F` [Example 147, 1,1-dimethylethyl {1-[8-(2,6-difluorophenyl)-4-(2-methyl-5-{[(phenylmethyl)amino]carbonyl}phenyl)-7-oxo-5,6,7,8-tetrahydropyrimido[4,5-d]pyrimidin-2-yl]-4-piperidinyl}methylcarbamate], for which the melting point is 146 to 150 °C (dec.).

`Cc1ccc(C(=O)NCc2ccccc2)cc1-c1nc(N2CCN(C)CC2)nc2c1CNC(=O)N2c1c(F)cccc1F` [Example 148] displayed a melting point of 164 to 168 °C. Besides, the inhibition of neutrophilia result in series [1] is given as “statistically nonsignificant inhibition of neutrophilia”.

Compound `Cc1ccc(C(=O)NCc2ccccc2)cc1-c1nc(NCCCN(C)C)nc2c1CNC(=O)N2c1c(F)cccc1F` [Example 151] registered a melting point of 141 to 144 °C. For the same compound, in series [1], the inhibition of neutrophilia entry is listed as “statistically nonsignificant inhibition of neutrophilia”.

With `CNC(=O)c1ccc(C)c(-c2nc(NCCN(C)C)nc3c2CNC(=O)N3c2c(F)cccc2F)c1` [Example 163(c), 3-(8-(2,6-difluorophenyl)-2-{[2-(dimethylamino)ethyl]amino}-7-oxo-5,6,7,8-tetrahydropyrimido[4,5-d]-pyrimidin-4-yl)-N,4-dimethylbenzamide], the melting point is 155 to 158 °C (dec.). Also, the “active in the assay” value on Recombinant human p38α is on record as “active”.

Turning to `CNC(=O)c1ccc(C)c(-c2nc(NCCNC(C)C)nc3c2CNC(=O)N3c2c(F)cccc2F)c1` [Example 167, 3-[8-(2,6-difluorophenyl)-2-({2-[(1-methylethyl)amino]ethyl}amino)-7-oxo-5,6,7,8-tetrahydropyrimido[4,5-d]-pyrimidin-4-yl]-N,4-dimethylbenzamide], the melting point was 136 to 139 °C (dec.).

Turning to `CNC(=O)c1ccc(C)c(-c2nc(NCCCNC(C)C)nc3c2CNC(=O)N3c2c(F)cccc2F)c1` [Example 168, 3-[8-(2,6-difluorophenyl)-2-({3-[(1-methylethyl)amino]propyl}amino)-7-oxo-5,6,7,8-tetrahydropyrimido[4,5-d]pyrimidin-4-yl]-N,4-dimethylbenzamide], the melting point is 153 to 157 °C (dec.).

`CNC(=O)c1ccc(C)c(-c2nc(N3CCN(C)CC3)nc3c2CNC(=O)N3c2c(F)cccc2F)c1` [Example 169, 3-[8-(2,6-difluorophenyl)-2-(4-methyl-1-piperazinyl)-7-oxo-5,6,7,8-tetrahydropyrimido[4,5-d]pyrimidin-4-yl]-N,4-dimethylbenzamide]: the melting point was 164 to 168 °C (dec.).

For `CNC(=O)c1ccc(C)c(-c2nc(NCCCNC(C)(C)C)nc3c2CNC(=O)N3c2c(F)cccc2F)c1` [Example 170, 3-[8-(2,6-difluorophenyl)-2-({3-[(1,1-dimethylethyl)amino]propyl}amino)-7-oxo-5,6,7,8-tetrahydropyrimido[4,5-d]pyrimidin-4-yl]-N,4-dimethylbenzamide], the melting point is 166 to 170 °C (dec.).

The compound `CCCCN(CCCC)CCCNc1nc(-c2cc(C(=O)NC)ccc2C)c2c(n1)N(c1c(F)cccc1F)C(=O)NC2` [Example 171, 3-[2-{[3-(dibutylamino)propyl]amino}-8-(2,6-difluorophenyl)-7-oxo-5,6,7,8-tetrahydropyrimido[4,5-d]pyrimidin-4-yl]-N,4-dimethylbenzamide] displayed a melting point of 112 to 115 °C.

As to `CNC(=O)c1ccc(C)c(-c2nc(NC3CCN(C)CC3)nc3c2CNC(=O)N3c2c(F)cccc2F)c1` [Example 173, 3-{8-(2,6-difluorophenyl)-2-[(1-methyl-4-piperidinyl)amino]-7-oxo-5,6,7,8-tetrahydropyrimido[4,5-d]pyrimidin-4-yl}-N,4-dimethylbenzamide], the melting point was 205 to 209 °C (dec.).
